These results are taken from patent US9522124B2, “Methods for treating Alzheimer's disease” (Wisconsin Alumni Research Foundation, priority 2011, dated 2016).

For one assay, the target named is T1, ATase1 (Homo sapiens, UniProt Q9UHF3).
T1 construct: myc (C); made in house
T1 sequence (Q9UHF3 1-227): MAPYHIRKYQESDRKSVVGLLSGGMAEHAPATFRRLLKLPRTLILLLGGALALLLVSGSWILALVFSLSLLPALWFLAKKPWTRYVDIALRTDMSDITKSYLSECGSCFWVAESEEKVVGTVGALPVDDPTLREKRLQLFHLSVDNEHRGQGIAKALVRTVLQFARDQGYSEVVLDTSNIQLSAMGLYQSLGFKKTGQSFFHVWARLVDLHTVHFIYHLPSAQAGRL
In words: AcetylCoA:lysine acetyltransferase assay (fluorescent, affinity purified ATase1-myc). The assay is classed as biochemical. The procedure: The acetyl:CoA lysine acetyltransferase activity of ATase1 and ATase2 was assayed as described before (Ko and Puglielli, 2009). Briefly, we adapted a commercially available fluorescent kit (cat. no. 10006515, Cayman Chemicals) as follows: as source of the enzymatic activity, we used affinity purified ATase1-myc and ATase2-myc at the final concentration of 300 ng/μl; as donor of the acetyl group, we used acetyl-CoA at the final concentration of 12.5 μM. […] The acetyltransferase assay was performed as recommended by the manufacturer.
For kinetic analysis of ATase1 and ATase2 inhibition, the assays were performed in the presence of the indicated concentrations of compound 9, 19 and 9.I. The concentration of acetyl-CoA was varied from […]. Values were plotted as a Lineweaver-Burk plot using Graphpad Prism software.
We previously described a fluorescent assay that is able to assess the acetylCoA:lysine acetyltransferase activity of ATase1 and ATase2 in vitro (Ko and Puglielli, 2009). The assay employs affinity purified ATase1 or ATase2 (as enzymes), acetyl-CoA (as donor of the acetyl group) and a recombinant peptide corresponding to the N-terminal tail of the histone protein H3 (as acceptor of the acetyl group). The H3 peptide was preferred to affinity purified BACE1 because it is acetylated in a conformation independent manner ((Ko and Puglielli, 2009) and data not shown) and, therefore, more suitable for large screening approaches. To identify possible ATase1 and ATase2 inhibitors we used the assay to screen a single library of 14,400 small molecules/compounds. The screen identified 186 small molecules/compounds able to inhibit ATase1, ATase2 or both in vitro. […] Each compound was then screened for cytotoxic properties by using multi-plex cytotoxicity assays on a variety of cell lines, including human neuroblastoma and human neuroglioma. […] The above 30 compounds were individually screened on human neuroglioma (H4) cells for their ability to reduce the levels of BACE1 and the generation of Aβ. Two compounds, 9 and 19, produced significant changes and were object of further study.

The subject of another assay is APP695/swe mice. In words: Long-term potentiation in hippocampal brain slices of treated mice. The assay is classed as in vivo, mouse. The following applies: 50 mg/kg/day in diet, 4 months. The procedure:
FIG. 15. Compound 9 prevents synaptic deficits in APP695/swe mice. Non-Transgenic (Non-Tg) and APP695/swe mice were fed a diet containing 50 mg/kg/day of compound 9 for 4 months prior to synaptic assessment. Compound 9 prevented the severe deficits of the late component of long term potentiation (LTP) that characterizes the APP695/swe phenotype (A). […] Field excitatory postsynaptic potential (fEPSP) as percent of baseline (100) is shown as a function of time. Calibration: 1 mV, 1 ms. All values are mean±SEM. *P<0.0001.
In order to assess disease-relevant functions, we performed a pilot study with APP695/swe mice, a commonly-used mouse model of AD. APP695/swe mice express a modified mouse APP cDNA encoding the 695-amino acid isoform with a “humanized” Aβ domain that includes the familial AD-associated Swedish double mutation. APP695/swe mice develop synaptic deficits at 3-5 months of age, well before any sign of neurodegeneration can be observed. The cognitive deficits as well as the amyloid plaques can be detected only later, at approximately 12-18 months of age (reviewed in Duyckaerts, et al., 2008).
A group of non-transgenic and APP695/swe mice were fed a diet containing 50 mg/kg/day of compound 9. Treatment started at weaning (˜6 weeks of age) and lasted 4 months. […]

The subject of a further assay is C99. Nature of the assay: Western blot assessment of C99 levels in H4 cell lysates. Format: cell-based, human. The following applies: H4 cells, 48 hours. The procedure:
FIG. 7. Compound 9 and 19 decrease levels and activity of BACE1. H4 cells were treated with either compound 9 or 19 for 48 hours prior to Western blot assessment of BACE1 and C99 levels in cell lysates. C99 is the immediate product of BACE1-mediated cleavage of APP.
Western blotting was performed on a 4-12% Bis-Tris SDS-PAGE system (NuPAGE; Invitrogen, Carlsbad, Calif., USA) as described previously (Costantini et al., 2006; Jonas et al., 2008; Jonas et al., 2010; Ko and Puglielli, 2007; Ko and Puglielli, 2009; Pehar et al., 2010). The following antibodies were used in this study: anti-acetylated lysine (monoclonal; cat. no. ab409; Abcam, Cambridge, Mass., USA); anti-BACE1 (polyclonal; cat. no. ab2077; Abcam); anti-Myc (monoclonal; cat. no. sc-40; santa cruz, Santa Cruz, Calif., USA); anti-ATases/NAT8 (polyclonal; cat. no. AP4957c; Abgent, San Diego, Calif., USA); anti-actin (monoclonal; cat. no. A1978; Sigma, St Louis, Mo., USA); anti-C99 (monoclonal; cat. no. M066-3; MBL, Woburn, Mass., USA); anti-acetylated H3 (polyclonal; cat. no. 06-599, Millipore, Billerica, Mass.); anti-acetylated H4 (polyclonal; cat. no. 06-866, Millipore, Billerica, Mass.); anti-αPCNA (polyclonal; cat. no. AP2835b, Abgent, San Diego, Calif., USA).

SMILES strings stand for the structures.

In the case of `O=c1c(Cl)c2oc3ccccc3nc-2c2ccccc12` [Compound 9], on ATase1, the IC50 is ~3.9 µM. For the same compound, the “kinetics of inhibition for acetyl-CoA, ATase1” value on ATase1 (Lineweaver-Burk plot, acetyl-CoA varied) was “competitive inhibition”. The “defect in late component of long-term potentiation (LTP)” value in the assay with APP695/swe mice (APP695/swe mice) is “drastically prevented”. Also, the “effect on LTP in non-transgenic mice” value with APP695/swe mice (non-transgenic mice) is reported as “no effect was observed”. Moreover, the “cellular levels of C99” value in the assay with C99 was “decreased cellular levels of C99”.
